The structures appear in SMILES notation.

One test has as its system GPR55. Further details: method as in PMID 21534610. To be noted: β-arrestin recruitment assays; read-out: reported potency; cited from earlier work. (In general: Activated receptors often draw arrestin, which recruitment assays turn into a signal.)
Test [1] deals with GPR55 mutant R253A (Gα13) (Homo sapiens, UniProt Q9Y2T6, R253A). In words: BRET² G protein dissociation assay, GPR55 R253A with Gα13. Format: cell-based. An excerpt:
To validate the functionality of the GPR55 cryo-EM construct, we conducted bioluminescence resonance energy transfer 2 (BRET²)-based G protein dissociation assays[46],[47] using an engineered heterotrimeric G13 protein. The N-terminal GFP fusion of the receptor was additionally modified with a G67A mutation to disrupt fluorescence properties. We employed human embryonic kidney (HEK) cells overexpressing wt or mutant GPR55 together with Gβ3, Gγ9-GFP, and Gα13 tagged with Renilla luciferase 8 (Rluc8).
G protein dissociation assays were performed according to the original protocols of the TRUPATH BRET² assay[47],[87] but with subtle modifications as previously described[61],[88],[89]. All reagents and cells were obtained from Thermo Fisher Scientific unless indicated otherwise. The coding sequences for the G protein biosensors[47] (Gα12-Rluc8, Gα13-Rluc8, wt Gβ3, and Gγ9-GFP), the wt GPR55, the construct used for cryo-EM (with GFP bearing a G67A mutation to disrupt fluorescence properties[48] for BRET² assays), GPR55 binding pocket mutants (G152^4.56F, G152^4.56W, N171^ECL2Q, N171^ECL2A, T176^5.33A, R253^6.62A), and the wt TBXA2R were codon-optimized for Homo sapiens, gene-synthesized, and sub-cloned into pcDNA^TM3.1(+) between NheI and HindIII restriction sites by GeneArt (Thermo Fisher Scientific). […] Freshly grown cells were washed with Dulbecco’s Balanced Salt Solution (DPBS, cat. #14200075) and detached using trypsin-ethylenediaminetetraacetic acid (trypsin-EDTA) (cat. #25300-062). Then, the cells were reconstituted to 500,000 cells per mL with fresh medium, and 1,000,000 cells were seeded into each well of a 6-well plate. After 3 h incubation at 37 °C and 5% CO2, adherent cells were transfected with 600 ng DNA (1:1:1:1 ratio of plasmid DNA for GPR55, wt Gβ3, Gγ9-GFP, and Gα12-Rluc8 or Gα13-Rluc8). Plasmid DNA was mixed with 1.5 µL Lipofectamine^TM 2000 (cat. #11668027) in Opti-MEM^TM medium (cat. #31985062) and incubated for 20 min. Then, the mixture was added to each well of the 6-well plate following 24 h incubation at 37 °C and 5% CO2. Transfected cells were washed with DPBS, detached using EDTA (Versene, cat. #15040066), and reconstituted into fresh medium at 500,000 cells mL^−1. From this suspension, 50,000 cells were seeded into each well of a white-bottom 96-well plate (Nunc^TM MicroWell^TM 96 wells, cat. #136101) following overnight incubation at 37 °C and 5% CO2. Then, the adherent cells were washed with assay medium [Hank’s balanced salt solution (HBSS, cat. #14065056) plus 20 mM HEPES pH 7.4 (cat. #15630056)] and finally reconstituted into 50 µL of the same medium. […] Methoxy e-Coelenterazine was used as luciferase substrate (Prolume Purple, NanoLight Technology, cat. #369), reconstituted at 1 mM in methanol and diluted to 37.5 µM with assay buffer (7.5 µM final assay concentration). The assay was started by the addition of 20 µL luciferase substrate to each well of the assay plate using a Multidrop^TM Combi reagent dispenser (Thermo Fisher Scientific), followed by 5 min incubation at room temperature. Then, 30 µL of agonist dilutions or DMSO control was added (final DMSO concentration 1.5%), followed by an additional 5 min incubation at room temperature. BRET² measurements were performed with a PHERAstar® FSX microplate reader (BMG LABTECH) using a BRET² filter (donor emission 370–450 nm, acceptor emission 500–530 nm) at the maximum fluorescence gain of 3600. BRET² ratios were calculated by dividing GFP emission signals from Rluc8 emission counts. Buffer-DMSO controls were subtracted from each data point to calculate ΔBRET² ratios.

GPR55 mutant R253A (Gα13), sequence (Q9Y2T6 whole entry R253A, the tested form may be a part): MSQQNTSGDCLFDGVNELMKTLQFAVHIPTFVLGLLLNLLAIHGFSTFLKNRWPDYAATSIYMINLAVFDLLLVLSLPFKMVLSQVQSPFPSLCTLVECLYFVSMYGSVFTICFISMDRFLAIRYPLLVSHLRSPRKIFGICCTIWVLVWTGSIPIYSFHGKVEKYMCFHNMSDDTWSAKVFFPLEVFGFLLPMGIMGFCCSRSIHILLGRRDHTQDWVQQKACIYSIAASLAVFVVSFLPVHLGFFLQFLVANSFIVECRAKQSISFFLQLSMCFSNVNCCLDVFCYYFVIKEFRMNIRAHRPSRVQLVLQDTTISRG
GPR55 mutant R253A (Gα13), sequence (Q14344 whole entry partner, the tested form may be a part): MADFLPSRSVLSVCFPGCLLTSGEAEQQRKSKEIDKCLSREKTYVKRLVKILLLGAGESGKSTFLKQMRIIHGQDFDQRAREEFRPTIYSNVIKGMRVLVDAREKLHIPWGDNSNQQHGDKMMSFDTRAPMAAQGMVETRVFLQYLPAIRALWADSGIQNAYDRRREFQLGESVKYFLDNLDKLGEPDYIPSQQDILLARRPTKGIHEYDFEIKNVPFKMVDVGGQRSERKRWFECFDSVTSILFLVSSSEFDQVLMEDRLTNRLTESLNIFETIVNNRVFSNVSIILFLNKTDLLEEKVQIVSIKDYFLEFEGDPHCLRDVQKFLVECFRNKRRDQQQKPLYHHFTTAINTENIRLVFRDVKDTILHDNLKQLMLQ
GPR55 mutant R253A (Gα13), sequence (P16520 whole entry partner, the tested form may be a part): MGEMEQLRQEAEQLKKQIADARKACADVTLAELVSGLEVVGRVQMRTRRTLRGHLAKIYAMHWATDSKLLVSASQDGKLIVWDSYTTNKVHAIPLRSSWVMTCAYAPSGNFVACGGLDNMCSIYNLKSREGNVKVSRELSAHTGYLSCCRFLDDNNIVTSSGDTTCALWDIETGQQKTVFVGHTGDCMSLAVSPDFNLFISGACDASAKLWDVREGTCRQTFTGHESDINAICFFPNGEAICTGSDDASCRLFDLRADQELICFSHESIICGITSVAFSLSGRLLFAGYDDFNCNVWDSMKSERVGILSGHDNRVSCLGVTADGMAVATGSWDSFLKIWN
GPR55 mutant R253A (Gα13), sequence (O14610 1-66 partner limits assumed): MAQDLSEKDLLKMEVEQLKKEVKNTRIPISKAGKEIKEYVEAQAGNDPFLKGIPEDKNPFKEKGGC

As to `Cc1cccc(N2CCN(C(=O)c3cc(S(=O)(=O)N(C)C)ccc3N3CCCC3)CC2)c1C` [ML184, 3-[[4-(2,3-dimethylphenyl)-1-piperazinyl]carbonyl]-N,N-dimethyl-4-(1-pyrrolidinyl)benzenesulfonamide], the EC50 with GPR55 is 0.26 µM; in test [1] (GPR55 R253A, Gα13) it was 0.0145 µM. Further, the “Mean (plotted) BRET² response, GPR55-R253A-G13” value (“Mean (plotted) BRET² response” for short) in test [1] (Concentration 300 pM) is given as -0.01108; in test [1] (Concentration 1e-9 M) it was -0.01039; in test [1] (Concentration 3e-9 M), -0.0289; in test [1] (Concentration 1e-8 M), -0.05814; in test [1] (Concentration 3e-8 M), -0.08149; in test [1] (Concentration 1e-7 M), -0.0987. Also, the “Mean (plotted) BRET² response” value in test [1] (Concentration 3e-7 M) is reported as -0.1069; in test [1] (Concentration 1e-6 M), -0.1131; in test [1] (Concentration 3e-6 M), -0.1166; in test [1] (Concentration 1e-5 M), -0.1236; in test [1] (Concentration 3e-5 M) it was -0.1287. Further, the “increase of potency compared to wt GPR55” value in test [1] (R253A mutant) was “slightly increased by a factor of three”.

Turning to `CCCCC[C@H](O)/C=C/[C@@H]1[C@@H](C/C=C\CCCC(=O)O)[C@H]2CO[C@@H]1C2` [U-46619], the “Mean (plotted) BRET² response” value is 0.0024 in test [1] (Concentration 10 pM); 0.00435 in test [1] (Concentration 30 pM); 0.00475 in test [1] (Concentration 100 pM); -0.008328 in test [1] (Concentration 300 pM); 0.002391 in test [1] (Concentration 1e-9 M); 0.002546 in test [1] (Concentration 3e-9 M). For the same compound, the “Mean (plotted) BRET² response” value in test [1] (Concentration 1e-8 M) was 0.001532; in test [1] (Concentration 3e-8 M), 0.002853; in test [1] (Concentration 1e-7 M), 0.0008838; in test [1] (Concentration 3e-7 M), -0.0001645; in test [1] (Concentration 1e-6 M), -0.0002602; in test [1] (Concentration 3e-6 M) it was -0.001768. Besides, the “Mean (plotted) BRET² response” value in test [1] (Concentration 1e-5 M) is given as -0.005378; in test [1] (Concentration 3e-5 M), -0.00746.

(Values after publication PMC11861906, “Structural basis for lipid-mediated activation of G protein-coupled receptor GPR55” (Nature Communications, 2025).)
